Experiments:
Primary striatal cells = assay: Striatum-derived neurosphere proliferation in response to proliferative and regulatory factors (Example 43, Paradigm 1); assay type: cell-based, mouse
Method: Paradigm 1: Primary striatal cells prepared as outlined in Example 1 were suspended in Complete Medium, without growth factors, plated in 96 well plates (Nunclon) and incubated as described in Example 4. Following a one hour incubation period, a specific proliferative factor, or a combination of proliferative factors including EGF, or bFGF (recombinant human bFGF: R & D Systems), or a combination of EGF and bFGF, or EGF plus FGF plus heparan sulfate (Sigma), or bFGF plus heparan sulfate made up in Complete Medium at a concentration of 20 ng/ml for each of the growth factors and 2 μg/ml for heparan sulfate), was added to each well of the plate.
Retinoic acid (Sigma) was added at a concentration of 10^−6 M. 10 μl of one of these regulatory factor-containing solutions was added to each proliferative factor-containing well of the 96 well plates. Control wells, containing only proliferative factors, were also prepared. […]
IL-2, IL-6, IL-8, MIP-1∂, MIP-1β, MIP-2, TNFα and EGF additions were repeated every second day, CNTF which was added each day and retinoic acid, NGF and PDGF were added only once, at the beginning of the experiment. The cells were incubated for a period of 10-12 days. The number of neurospheres in each well was counted and the resulting counts tabulated using Cricket Graph III. Other relevant information regarding sphere size and shape were also noted.

[1] = system: BrdU positive cells in cervical spinal cord; assay: In vivo infusion of growth factors into ventricles, BrdU labelling of cervical spinal cord (Example 30); set-up: species or system mouse; conditions: 25 μg/mL, osmotic mini-pump, six days
Method: Adult male CD1 albino mice (30-35 g) from Charles River were anaesthetized with sodium pentobarbital ([…]) and placed in a stereotaxic apparatus. The dorsal aspect of the skull was exposed with a longitudinal incision. Cannulas were inserted into the fourth ventricle (stereotaxic coordinates A/P −7.0, L ±0.3 D/V −5.8), cerebral aqueduct (A/P −4.8 L ±D/V −2.6), or central canal (DIV −1.5). The cannulae were attached with sterile tubing to subcutaneous positioned ALZET osmotic mini-pumps containing 25 μg/mL EGF (Becton 40001) and/or 25 μg/mL FGF-2 (R&D Systems 233-FB). Pumps containing sterile saline plus 0.1% mouse albumin (Sigma A3134) were used as controls. The incisions were closed with dental cement.
Six days following surgery mice were injected with 0.15 mL BrdU (Sigma B5002); 18 mg/mL in 0.007% NaOH/0.1M PBS) every 2 hours for 8 hours. They were killed 0.5 hours after the last injection with an anaesthetic overdose, and transcardially perfused with 10 mL of ice-cold sterile saline followed by 10 mL of ice-cold Bouin's fixative (5% glacial acetic acid, 9% formaldehyde, 70% picric acid). The cervical spinal cord region was dissected out and post-fixed overnight at 4° C. in Bouin's post-fixative solution (9% formaldehyde, 70% picric acid). […] The number of BrdU positive cells was counted per cervical spinal cord section. […]

For “bFGF: basic fibroblast growth factor, recombinant human (R & D Systems)”, the “size of neurospheres relative to those generated in the presence of EGF” value (Primary striatal cells; bFGF alone) was “about 20%”, the “neurospheres generated per well” value (Primary striatal cells; proliferative factor alone, 20 ng/ml) was “approximately 70 neurospheres per well” and the “number of BrdU labelled cells per cervical spinal cord section compared to control” value [1] was “significant increase”.

— patent US6497872B1, “Neural transplantation using proliferated multipotent neural stem cells and their progeny” (NeuroSpheres Holdings Ltd., priority 1991, dated 2002)
